Laboratory results from PMC3867298 (Clinical cancer research : an official journal of the …, 2010).
Read-outs that look alike come from different tables or passages of the source. Marks after values point to notes of the source that are not given here.

Key:
phosphohistone H3 (pHH3) = test: Histone H3 phosphorylation in keratinocytes; type: in vivo, human; details: 9 paired skin biopsies at MTD, cycle 1 day 28
[1] = test system: patients with advanced solid tumors
[2] = cohort 1, 60 mg/m^2, 7 patients
[3] = cohort 2, 80 mg/m^2, 4 patients
[4] = cohort 3, 120 mg/m^2, 3 patients
[5] = cohort 4, 200 mg/m^2, 7 patients
[6] = cohort 5, 160 mg/m^2, 8 patients
[7] = expansion, 160 mg/m^2, 38 patients
[8] = treatment-related, worst grade per patient, all cycles, N = 67

Cc1cc(Nc2cc(N3CCN(C)CC3)nc(/C=C/c3ccccc3)n2)n[nH]1 [ENMD-2076]
Paired biopsies in which pHH3-positive cells decreased posttreatment (phosphohistone H3 (pHH3)): 3 samples | Paired biopsies in which pHH3-positive cells increased (phosphohistone H3 (pHH3)): 2 samples | Paired biopsies in which pHH3-positive cells remained the same (phosphohistone H3 (pHH3)): 4 samples | Patients with grade 3 neutropenia requiring dose delay and reduction ([1]; 200 mg/m^2, 3 of 7): 43% | Patients with neutropenia ([1]; 200 mg/m^2 during dose escalation, 4 of 7): 57% | Rate of grade ≥ 3 neutropenia ([1]; 46 patients treated at 160 mg/m^2 (2/46)): 4% | Rate of grade ≥ 3 fatigue ([1]; 46 patients treated at 160 mg/m^2 (3/46)): 7% | Rate of grade ≥ 3 hypertension ([1]; 46 patients treated at 160 mg/m^2 (11/46)): 24% | Patients with adverse events meeting DLT criteria ([1]; MTD expansion, 12/38, 16 events): 32% | Patients requiring dose reduction ([1]; MTD expansion, 14/38): 37% | Patients with dose delays ([1]; MTD expansion, 24/38): 63% | Adrenal insufficiency ([1]; all patients): not observed | Patients requiring dose reduction due to toxicity ([1]; at the MTD of 160 mg/m^2): 33% | Patients with hypothyroidism ([1]; both in the expanded 160 mg/m^2 cohort): 2 patients | No. of patients with DLT (cycle 1) [1, 2]: 1 ^† | No. of patients with dose delays [1, 2]: 2 (29%) | No. patients with dose reductions [1, 2]: 1 (14%) | No. of patients with DLT (cycle 1) [1, 3]: 0 | No. of patients with dose delays [1, 3]: 3 (75%) | No. patients with dose reductions [1, 3]: 1 (25%) | No. of patients with DLT (cycle 1) [1, 4]: 0 | No. of patients with dose delays [1, 4]: 1 (33%) | No. patients with dose reductions [1, 4]: 0 | No. of patients with dose delays [1, 5]: 7 (100%) | No. patients with dose reductions [1, 5]: 3 (43%) | No. of patients with dose delays [1, 6]: 3 (38%) | No. patients with dose reductions [1, 6]: 1 (13%) | Patients with fatigue of grade 3 to 4 severity ([1]; expanded 160 mg/m^2 cohort): 2 patients | Patients with tooth discoloration ([1]; expanded 160 mg/m^2 cohort): Four | Patients with grade 3/4 neutropenia ([1]; expanded 160 mg/m^2 cohort, 2 of 38): 5% | Patients with grade 1/2 neutropenia ([1]; expanded 160 mg/m^2 cohort, 3 of 38): 8% | Patients with fatigue ([1]; expanded 160 mg/m^2 cohort, 12/38): 32% | No. of patients with DLT (met the definition of DLT) [1, 7]: 12 ^§ | No. of patients with dose delays [1, 7]: 24 (63%) | No. patients with dose reductions [1, 7]: 14 (37%) | Patients in whom hypertension resulted in dose delay or reduction ([1]; in vivo): 16% | Recommended phase 2 dose ([1]; oral once daily, continuous dosing): 160 mg/m^2 | Maximum tolerated dose (MTD) ([1]; oral, continuous once daily dosing): 160 mg/m^2 | Median time to onset of hypertension following initial dosing ([1]; range 2–60 days): 14 days | Patients with hypertension of grade 3/4 severity ([1]; total patients): 21% | Anorexia, any grade [1, 8]: 24% | Anorexia, grade 3, No. of patients [1, 8]: 0 | Anorexia, grade 4, No. of patients [1, 8]: 0 | Constipation, any grade [1, 8]: 15% | Constipation, any grade, No. of patients [1, 8]: 10 | Constipation, grade 3, No. of patients [1, 8]: 0 | Constipation, grade 4, No. of patients [1, 8]: 0 | Dehydration, any grade, No. of patients [1, 8]: 12 | Dehydration, grade 3 [1, 8]: 1% | Dehydration, grade 3, No. of patients [1, 8]: 1 | Dehydration, grade 4, No. of patients [1, 8]: 0 | Diarrhea, any grade, No. of patients [1, 8]: 17 | Diarrhea, grade 3 [1, 8]: 3% | Diarrhea, grade 3, No. of patients [1, 8]: 2 | Diarrhea, grade 4, No. of patients [1, 8]: 0 | Dysgeusia, any grade [1, 8]: 10% | Dysgeusia, any grade, No. of patients [1, 8]: 7 | Dysgeusia, grade 3, No. of patients [1, 8]: 0 | Dysgeusia, grade 4, No. of patients [1, 8]: 0 | Dyspnea, any grade, No. of patients [1, 8]: 8 | Dyspnea, grade 3 [1, 8]: 4% | Dyspnea, grade 3, No. of patients [1, 8]: 3 | Dyspnea, grade 4, No. of patients [1, 8]: 0 | Fatigue, any grade [1, 8]: 31% | Fatigue, any grade, No. of patients [1, 8]: 21 | Fatigue, grade 3 [1, 8]: 3% | Fatigue, grade 3, No. of patients [1, 8]: 2 | Fatigue, grade 4, No. of patients [1, 8]: 0 | Glossodynia, any grade, No. of patients [1, 8]: 11 | Glossodynia, grade 3, No. of patients [1, 8]: 0 | Glossodynia, grade 4, No. of patients [1, 8]: 0 | Hypertension, any grade, No. of patients [1, 8]: 37 | Hypertension, grade 3, No. of patients [1, 8]: 12 | Hypertension, grade 4 [1, 8]: 3% | Hypertension, grade 4, No. of patients [1, 8]: 2 | Mucositis, any grade [1, 8]: 15%
